≈ marks a conversion by molar mass, not a printed value.
Legend:
[1] = system: Mycobacterium kansasii; assay: Antimycobacterial activity against Mycobacterium kansasii (ATCC12478); assay type: functional
[2] = system: Mycobacterium avium; assay: Antimycobacterial activity against Mycobacterium avium (NIHJ1605); assay type: functional
[3] = target: T1, Phospho-N-acetylmuramoyl-pentapeptide-transferase (Escherichia coli K-12, UniProt P0A6W3); assay: Inhibitory activity against translocase I
T1 sequence (P0A6W3 whole entry): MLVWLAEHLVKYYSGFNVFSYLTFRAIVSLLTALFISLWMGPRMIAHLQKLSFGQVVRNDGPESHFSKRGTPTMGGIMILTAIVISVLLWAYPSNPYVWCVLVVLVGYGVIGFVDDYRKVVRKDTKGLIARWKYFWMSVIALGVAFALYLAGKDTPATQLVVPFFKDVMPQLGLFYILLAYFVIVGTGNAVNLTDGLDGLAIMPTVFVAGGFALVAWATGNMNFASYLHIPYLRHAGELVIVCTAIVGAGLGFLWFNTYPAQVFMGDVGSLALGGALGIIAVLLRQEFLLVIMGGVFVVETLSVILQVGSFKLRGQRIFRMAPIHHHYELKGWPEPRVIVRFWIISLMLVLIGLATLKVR

[4] = system: Mycobacterium intracellulare; assay: Antimycobacterial activity against Mycobacterium intracellular (ATCC 1954 E-3); assay type: functional
[5] = system: Mycolicibacterium smegmatis; assay: Antimycobacterial activity against Mycobacterium smegmatis (SANK 75075); assay type: functional

| SMILES | IC50 [3] [nM] | MIC [5] [µg/mL] | MIC [1] [µg/mL] | MIC [2] [µg/mL] | MIC [4] [µg/mL] |
| --- | --- | --- | --- | --- | --- |
| CO[C@H]1[C@@H](O)[C@H](n2ccc(=O)[nH]c2=O)O[C@@H]1[C@@H](O[C@H]1OC(C(=O)N[C@H]2CCCCNC2=O)=C[C@H](O)[C@@H]1O)C(N)=O [CAPURAMYCIN] | 18 | 12.5 (≈ 21.9 µM) | 8 (≈ 14 µM) | 8 (≈ 14 µM) | 8 (≈ 14 µM) |
| CO[C@H]1[C@@H](O)[C@H](n2ccc(=O)[nH]c2=O)O[C@@H]1[C@@H](O[C@H]1OC(C(=O)N[C@H]2CCC[C@@H](C)NC2=O)=C[C@H](O)[C@@H]1O)C(N)=O | – | 6.25 (≈ 10.7 µM) | 16 (≈ 27.4 µM) | 8 (≈ 13.7 µM) | 4 (≈ 6.85 µM) |
| CO[C@H]1[C@@H](O)[C@H](n2ccc(=O)[nH]c2=O)O[C@@H]1[C@@H](O[C@H]1OC(C(=O)Nc2cccc(C)c2)=C[C@H](O)[C@@H]1O)C(N)=O | 13.9 | 12.5 (≈ 22.8 µM) | 8 (≈ 14.6 µM) | 4 (≈ 7.29 µM) | 1 (≈ 1.82 µM) |
| NNC(=O)c1ccncc1 [ISONIAZID] | – | – | 2 (≈ 14.6 µM) | 1 (≈ 7.29 µM) | 8 (≈ 58.3 µM) |
| CO[C@H]1[C@@H](O)[C@H](n2ccc(=O)[nH]c2=O)O[C@@H]1[C@@H](O[C@H]1OC(C(=O)Nc2ccc(Cl)cc2)=C[C@H](O)[C@@H]1O)C(N)=O | 31.6 | 6.25 (≈ 11 µM) | 16 (≈ 28.1 µM) | 4 (≈ 7.03 µM) | 2 (≈ 3.52 µM) |
| CO[C@H]1[C@@H](O)[C@H](n2ccc(=O)[nH]c2=O)O[C@@H]1[C@@H](O[C@H]1OC(C(=O)Nc2ccc(Br)cc2)=C[C@H](O)[C@@H]1O)C(N)=O | 32.6 | 6.25 (≈ 10.2 µM) | 8 (≈ 13 µM) | 8 (≈ 13 µM) | 0.5 (≈ 0.815 µM) |
| CO[C@H]1[C@@H](O)[C@H](n2ccc(=O)[nH]c2=O)O[C@@H]1[C@@H](O[C@H]1OC(C(=O)Nc2cccc(F)c2)=C[C@H](O)[C@@H]1O)C(N)=O | – | 6.25 (≈ 11.3 µM) | 8 (≈ 14.5 µM) | 2 (≈ 3.62 µM) | 2 (≈ 3.62 µM) |
| CO[C@H]1[C@@H](O)[C@H](n2ccc(=O)[nH]c2=O)O[C@@H]1[C@@H](O[C@H]1OC(C(=O)Nc2ccccc2)=C[C@H](O)[C@@H]1O)C(N)=O | – | 6.25 (≈ 11.7 µM) | 8 (≈ 15 µM) | 16 (≈ 29.9 µM) | 4 (≈ 7.48 µM) |
| CO[C@H]1[C@@H](O)[C@H](n2ccc(=O)[nH]c2=O)O[C@@H]1[C@@H](O[C@H]1OC(C(=O)Nc2ccc(F)c(F)c2)=C[C@H](O)[C@@H]1O)C(N)=O | – | 6.25 (≈ 11 µM) | 8 (≈ 14 µM) | 2 (≈ 3.51 µM) | 0.5 (≈ 0.876 µM) |
| CO[C@H]1/C=C/O[C@@]2(C)Oc3c(C)c(O)c4c(O)c(c(/C=N/N5CCN(C)CC5)c(O)c4c3C2=O)NC(=O)/C(C)=C\C=C\[C@H](C)[C@H](O)[C@@H](C)[C@@H](O)[C@@H](C)[C@H](OC(C)=O)[C@@H]1C [RIFAMPIN] | – | – | 0.25 (≈ 0.304 µM) | 0.125 (≈ 0.152 µM) | 0.125 (≈ 0.152 µM) |
| CO[C@H]1[C@@H](O)[C@H](n2ccc(=O)[nH]c2=O)O[C@@H]1[C@@H](O[C@H]1OC(C(=O)NCc2ccco2)=C[C@H](O)[C@@H]1O)C(N)=O | 520 | 100 (≈ 186 µM) | – | – | – |
| CO[C@H]1[C@@H](O)[C@H](n2ccc(=O)[nH]c2=O)O[C@@H]1[C@@H](O[C@H]1OC(C(=O)Nc2ccc(F)cc2)=C[C@H](O)[C@@H]1O)C(N)=O | 67 | 6.25 (≈ 11.3 µM) | 2 (≈ 3.62 µM) | 4 (≈ 7.24 µM) | 2 (≈ 3.62 µM) |

Now from value to molecule, other results behind:

| IC50 [3] [nM] | MIC [5] [µg/mL] | SMILES | MIC [1] [µg/mL] | MIC [2] [µg/mL] | MIC [4] [µg/mL] |
| --- | --- | --- | --- | --- | --- |
| 59 | 50 (≈ 86.7 µM) | CO[C@H]1[C@@H](O)[C@H](n2ccc(=O)[nH]c2=O)O[C@@H]1[C@@H](O[C@H]1OC(C(=O)NCCc2ccc(C)cc2)=C[C@H](O)[C@@H]1O)C(N)=O | – | – | – |
| 23.7 | 12.5 (≈ 22.8 µM) | CO[C@H]1[C@@H](O)[C@H](n2ccc(=O)[nH]c2=O)O[C@@H]1[C@@H](O[C@H]1OC(C(=O)Nc2ccc(C)cc2)=C[C@H](O)[C@@H]1O)C(N)=O | – | – | – |
| 26.3 | 12.5 (≈ 21.9 µM) | CO[C@H]1[C@@H](O)[C@H](n2ccc(=O)[nH]c2=O)O[C@@H]1[C@@H](O[C@H]1OC(C(=O)Nc2ccc(F)cc2F)=C[C@H](O)[C@@H]1O)C(N)=O | – | – | – |
| 107 | 25 (≈ 44.4 µM) | CO[C@H]1[C@@H](O)[C@H](n2ccc(=O)[nH]c2=O)O[C@@H]1[C@@H](O[C@H]1OC(C(=O)Nc2ccc(C)cc2C)=C[C@H](O)[C@@H]1O)C(N)=O | – | – | – |
| 104 | 50 (≈ 86.4 µM) | CO[C@H]1[C@@H](O)[C@H](n2ccc(=O)[nH]c2=O)O[C@@H]1[C@@H](O[C@H]1OC(C(=O)NCCc2ccc(O)cc2)=C[C@H](O)[C@@H]1O)C(N)=O | – | – | – |
| 195 | 25 (≈ 44.4 µM) | CO[C@H]1[C@@H](O)[C@H](n2ccc(=O)[nH]c2=O)O[C@@H]1[C@@H](O[C@H]1OC(C(=O)NCCc2ccccn2)=C[C@H](O)[C@@H]1O)C(N)=O | – | – | – |
| 37.9 | 12.5 (≈ 21.5 µM) | CO[C@H]1[C@@H](O)[C@H](n2ccc(=O)[nH]c2=O)O[C@@H]1[C@@H](O[C@H]1OC(C(=O)NCCc2ccc(F)cc2)=C[C@H](O)[C@@H]1O)C(N)=O | – | – | – |
| 33.2 | 25 (≈ 46.2 µM) | CO[C@H]1[C@@H](O)[C@H](n2ccc(=O)[nH]c2=O)O[C@@H]1[C@@H](O[C@H]1OC(C(=O)Nc2nccs2)=C[C@H](O)[C@@H]1O)C(N)=O | – | – | – |
| 655 | 100 (≈ 182 µM) | CO[C@H]1[C@@H](O)[C@H](n2ccc(=O)[nH]c2=O)O[C@@H]1[C@@H](O[C@H]1OC(C(=O)NCc2ccccn2)=C[C@H](O)[C@@H]1O)C(N)=O | – | – | – |
| 30.1 | 50 (≈ 79.2 µM) | CO[C@H]1[C@@H](O)[C@H](n2ccc(=O)[nH]c2=O)O[C@@H]1[C@@H](O[C@H]1OC(C(=O)NCCc2ccc(Cl)cc2Cl)=C[C@H](O)[C@@H]1O)C(N)=O | – | – | – |
| 889 | 12.5 (≈ 22.2 µM) | CO[C@H]1[C@@H](O)[C@H](n2ccc(=O)[nH]c2=O)O[C@@H]1[C@@H](O[C@H]1OC(C(=O)NCc2ccccc2C)=C[C@H](O)[C@@H]1O)C(N)=O | – | – | – |
| 622 | 25 (≈ 39.9 µM) | CCCCCCCCCCCCNC(=O)C1=C[C@H](O)[C@H](O)[C@@H](O[C@@H](C(N)=O)[C@H]2O[C@@H](n3ccc(=O)[nH]c3=O)[C@H](O)[C@@H]2OC)O1 | – | – | – |
| 139 | 50 (≈ 90.2 µM) | CO[C@H]1[C@@H](O)[C@H](n2ccc(=O)[nH]c2=O)O[C@@H]1[C@@H](O[C@H]1OC(C(=O)NCc2cccs2)=C[C@H](O)[C@@H]1O)C(N)=O | – | – | – |
| 67.5 | 25 (≈ 42.2 µM) | COc1ccc(CCNC(=O)C2=C[C@H](O)[C@H](O)[C@@H](O[C@@H](C(N)=O)[C@H]3O[C@@H](n4ccc(=O)[nH]c4=O)[C@H](O)[C@@H]3OC)O2)cc1 | – | – | – |
| 40.2 | 50 (≈ 80.3 µM) | COc1ccc(CCNC(=O)C2=C[C@H](O)[C@H](O)[C@@H](O[C@@H](C(N)=O)[C@H]3O[C@@H](n4ccc(=O)[nH]c4=O)[C@H](O)[C@@H]3OC)O2)cc1OC | – | – | – |
| 194 | > 100 | CO[C@H]1[C@@H](O)[C@H](n2ccc(=O)[nH]c2=O)O[C@@H]1[C@@H](O[C@H]1OC(C(=O)Nc2nncs2)=C[C@H](O)[C@@H]1O)C(N)=O | – | – | – |
| 46.9 | 25 (≈ 41.9 µM) | CO[C@H]1[C@@H](O)[C@H](n2ccc(=O)[nH]c2=O)O[C@@H]1[C@@H](O[C@H]1OC(C(=O)NCCc2ccccc2Cl)=C[C@H](O)[C@@H]1O)C(N)=O | – | – | – |

From ChEMBL document CHEMBL1136174, “Synthesis and antimycobacterial activity of capuramycin analogues. Part 1: substitution of the azepan-2-one moiety of capuramycin” (Bioorg Med Chem Lett, 2003)
